From patent US11691984B2, “Compounds and methods for DCAF-mediated protein degradation” (The Scripps Research Institute, priority 2018, dated 2023)
Values belong to the compound of their own block, whether it stands above or below them.

Assays:
[1] = biological target: T1, BRD3 (Homo sapiens, UniProt Q15059); assay: Proteome-wide SILAC MS protein abundance in HEK293T cells: BRD3; format: cell-based; conditions: KB02-JQ1 20 μM, 24 hours
T1 construct: endogenous in cells; host or cells: HEK293T
Description: HEK293T light and heavy SILAC cells were treated with DMSO and KB02-JQ1 (20 μM) or KB02-SLF (2 μM) for 24 hours, respectively. Light and heavy cells were collected and lysed in 1% NP-40 lysis buffer with complete protease inhibitor cocktail. Cells were vortexed and sonicated for 5 pulses (40%, 4). The supernatant was collected after centrifugation at 16,000 g for 10 min at 4° C. Protein concentration was determined by DC assay. 50 μg proteome from light and heavy samples were mixed, followed by methanol/chloroform precipitation. […] Next, the ratio of the peak areas under the light and heavy signals (signal-to-noise ratio>2.5) was calculated. […] In addition, peptides detected as ‘singletons,’ where only the heavy ion of a peptide pair was identified, but that cleared all other filtering parameters, were given a default assigned ratio of ‘20,’ which is defined as any measured ratio that is ≥20 and is the maximum ratio reported here.” The median SILAC ratios from quantified peptides were used as measures of protein abundance. The following quality filters were further applied to generate the plot: (1) proteins must have at least two quantified peptides; (2) proteins must be present in both replicates; (3) for each protein, the standard deviation of measured ratios of peptides must be <1.0.

[2] = biological target: FLAG-FKBP12_NLS (Homo sapiens, UniProt P62942); assay: Anti-FLAG western blot of stably expressed nuclear FKBP12 (FLAG-FKBP12_NLS) in HEK293T cells; format: cell-based; design: expressed in transfected cells; host or cells: HEK293T, MDA-MB-231 and HEK293 DCAF16+/+ and DCAF16-/- clones (lentiviral pCDH-CMV-MCS-EF1-Puro); conditions: HEK293T
FLAG-FKBP12_NLS, sequence (P62942 whole entry): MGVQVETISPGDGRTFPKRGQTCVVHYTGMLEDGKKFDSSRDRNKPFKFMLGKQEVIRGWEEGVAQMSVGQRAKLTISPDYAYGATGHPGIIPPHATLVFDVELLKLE
Excerpt: FLAG-tagged variants of FKBP12 (FLAG-FKBP12) or (2) FKBP12 with a C-terminal nuclear localization sequence (FLAG-FKBP12_NLS) were then stably expressed in HEK293T cells to provide cell models for evaluating cytosolic- and nuclear-localized E3-mediated degradation pathways, respectively.
FLAG-FKBP12 or FLAG-FKBP12_NLS lentivirus was generated by co-transfection of FLAG-FKBP12 or FLAG-FKBP12_NLS, pCMV-dR8.2 and pMD2.G into HEK 293T cells using FuGene 6 transfection reagent (Promega). Virus-containing medium were collected 48 h after transfection, filtered with […] filter, and used to transduce HEK293T and MDA-MB-231 cells in the presence of 10 μg/mL polybrene (Santa Cruz). 72 h after transduction, puromycin (2 μg/mL) was added to cells. HEK293T cells stably expressing FLAG-FKBP12 or FLAG-FKBP12_NLS were obtained after puromycin selection for 7 days. HEK293T cells stably expressing pCDH empty vector were generated in parallel as control.
shRNA lentivirus was generated by co-transfection of shRNA-containing vector, pCMV-dR8.2 and pMD2.G into HEK 293T cells using FuGene 6 transfection reagent (Promega). Virus-containing medium were collected 48 h after transfection and used to transiently transduce HEK293T cells stably expressing FLAG-FKBP12_NLS for 48 h. Lentiviral shRNAs targeting human DCAF16 or DTL were in pLKO.1 vector and purchased from Sigma. The sequences of shRNAs is described below.
Cells were collected and lysed in 1% NP-40 lysis buffer (25 mM Tris-HCl pH 7.4, 150 mM NaCl, 10% glycerol, 1% Nonidet P-40) with complete protease inhibitor cocktail (Roche). Cells were vortexed and sonicated for 5 pulses (40%, 4). The supernatant was collected after centrifugation at 16,000 g for 10 min at 4° C. Protein concentration was determined by DC assay (Bio-Rad). Protein lysate was heated at 95° C. for 5 min in 1× Laemmli sample buffer. Proteins were resolved by 12% or 14% Novex Tris-Glycine Mini Gels (Invitrogen) and transferred to polyvinylidene fluoride (PVDF) membrane (0.2 Bio-Rad). The membrane was blocked with 5% BSA in TBST buffer (0.1% Tween 20, 20 mM Tris-HCl 7.6, 150 mM NaCl) at room temperature for 1 h. The antibody was diluted with fresh 5% BSA in TBST buffer (1:10000 dilution for FLAG, HA and β-Actin, 1:1000 dilution for others) and incubated with membrane (1 h room temperature for FLAG, HA and β-Actin, overnight 4° C. for others). Membrane was washed three times with TBST buffer and incubated with secondary antibody (1:5000 dilution in 5% BSA in TBST) at room temperature for 1 h. Membrane was washed three times with TBST buffer. The chemiluminescence signal in membrane was recorded after developing in ECL or ECL plus western blotting detection reagent using CL-XPosure film (Thermo Scientific). Relative band intensities were quantified using ImageJ.

T1 sequence (Q15059 whole entry): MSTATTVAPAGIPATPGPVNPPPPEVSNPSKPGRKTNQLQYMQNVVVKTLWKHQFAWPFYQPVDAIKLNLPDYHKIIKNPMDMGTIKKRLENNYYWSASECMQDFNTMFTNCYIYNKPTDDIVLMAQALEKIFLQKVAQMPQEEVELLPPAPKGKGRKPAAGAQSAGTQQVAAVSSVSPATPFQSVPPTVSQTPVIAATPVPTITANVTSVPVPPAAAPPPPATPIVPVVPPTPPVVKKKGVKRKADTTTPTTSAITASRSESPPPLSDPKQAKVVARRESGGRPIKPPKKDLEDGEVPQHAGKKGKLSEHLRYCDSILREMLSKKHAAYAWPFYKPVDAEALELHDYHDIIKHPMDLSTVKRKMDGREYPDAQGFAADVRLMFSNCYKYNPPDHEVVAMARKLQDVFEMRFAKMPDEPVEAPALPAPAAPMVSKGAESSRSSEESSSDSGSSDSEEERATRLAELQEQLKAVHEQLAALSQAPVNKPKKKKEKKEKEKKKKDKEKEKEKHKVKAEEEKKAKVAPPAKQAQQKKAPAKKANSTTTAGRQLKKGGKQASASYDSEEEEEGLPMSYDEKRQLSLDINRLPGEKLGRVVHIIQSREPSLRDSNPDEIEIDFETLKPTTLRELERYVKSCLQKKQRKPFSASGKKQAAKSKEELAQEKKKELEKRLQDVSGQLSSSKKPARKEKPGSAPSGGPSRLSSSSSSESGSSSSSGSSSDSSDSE

BRD3 abundance (MS-based proteomics) [1]: not BRD2 or BRD3
Structure (SMILES): Cc1sc2c(c1C)C(c1ccc(Cl)cc1)=N[C@@H](CC(=O)NCCOCCOCCNC(=O)COc1ccc3c(c1)CCCN3C(=O)CCl)c1nnc(C)n1-2 [KB02-JQ1, (S)-2-((1-(2-chloroacetyl)-1,2,3,4-tetrahydroquinolin-6-yl)oxy)-N-(2-(2-(2-(2-(4-(4-chlorophenyl)-2,3,9-trimethyl-6H-thieno[3,2-f][1,2,4]triazolo[4,3-a][1,4]diazepin-6-yl)acetamido)ethoxy)ethoxy)ethyl)acetamide]

Structure (SMILES): CCC(C)(C)C(=O)C(=O)N1CCCC[C@H]1C(=O)O[C@H](CCc1ccc(OC)c(OC)c1)c1cccc(NC(=O)CCOCCOCCNC(=O)COc2ccc3c(c2)CCCN3C(=O)CCl)c1 [KB02-SLF, (R)-1-(3-(3-(2-(2-(2-((1-(2-chloroacetyl)-1,2,3,4-tetrahydroquinolin-6-yl)oxy)acetamido)ethoxy)ethoxy)propanamido)phenyl)-3-(3,4-dimethoxyphenyl)propyl (S)-1-(3,3-dimethyl-2-oxopentanoyl)piperidine-2-carboxylate]
concentration for degradation of FKBP12_NLS [2]: 0.5 to 2 µM | nuclear FKBP12 (FKBP12_NLS) protein level ([2]; 2 μM, 8 or 24 h): substantial reduction in nuclear FKBP12 | KB02-SLF-mediated degradation of FKBP12_NLS after shRNA knockdown of DCAF16 ([2]; KB02-SLF 2 μM, 8 h): substantially prevented KB02-SLF-mediated degradation of FKBP12_NLS | KB02-SLF-mediated degradation of FKBP12_NLS after shRNA knockdown of DTL ([2]; KB02-SLF 2 μM, 8 h): not DTL | time frame across which the reduction in nuclear FKBP12 was sustained ([2]; KB02-SLF, FIG. 5A): 4 to 72 h | concentration across which loss of FKBP12_NLS was promoted ([2]; reductions in activity at higher concentrations, in µM): 0.5-5
